Results reported in ChEMBL document CHEMBL1149819, “Synthesis and in vivo anti-mutagenic activity of novel melatonin derivatives” (2008).

Experiments:
Conditions in all cases: route intragastric
Mus musculus [1] = test: Inhibition of cyclophosphamide-induced increase in micronuclei/polychromatic erythrocytes count in mouse at 14.16 mg/kg administered intragastrically for 1 week by micronuclei assay; format: functional; design: scale not given: the % may be the effect or the level left
Mus musculus [2] = test: Antimutagenic activity in Albino mouse brain assessed as DNA level per gram of tissue at 18.38 mg/kg administered intragastrically for 1 week; format: functional
Mus musculus [3] = test: Antimutagenic activity in Albino mouse kidney assessed as DNA level per gram of tissue at 18.38 mg/kg administered intragastrically for 1 week; format: functional
Mus musculus [4] = test: Antimutagenic activity in Albino mouse liver assessed as DNA level per gram of tissue at 18.38 mg/kg administered intragastrically for 1 week; format: functional
Mus musculus [5] = test: Antimutagenic activity in Albino mouse testes assessed as DNA level per gram of tissue at 18.38 mg/kg administered intragastrically for 1 week; format: functional, Testis
Mus musculus [6] = test: Antimutagenic activity in Albino mouse brain assessed as RNA level per gram of tissue at 18.38 mg/kg administered intragastrically for 1 week; format: functional
Mus musculus [7] = test: Antimutagenic activity in Albino mouse kidney assessed as RNA level per gram of tissue at 18.38 mg/kg administered intragastrically for 1 week; format: functional
Mus musculus [8] = test: Antimutagenic activity in Albino mouse liver assessed as RNA level per gram of tissue at 18.38 mg/kg administered intragastrically for 1 week; format: functional
Mus musculus [9] = test: Antimutagenic activity in Albino mouse testes assessed as RNA level per gram of tissue at 18.38 mg/kg administered intragastrically for 1 week; format: functional, Testis
Mus musculus [10] = test: Antimutagenic activity in mouse brain assessed as protein level per gram of tissue at 18.38 mg/kg administered intragastrically for 1 week; format: functional
Mus musculus [11] = test: Antimutagenic activity against cyclophosphamide-induced mutagenicity in mouse liver assessed as protein level per gram of tissue at 18.38 mg/kg administered intragastrically for 1 week; format: functional
Mus musculus [12] = test: Antimutagenic activity against cyclophosphamide-induced mutagenicity in mouse testes assessed as protein level per gram of tissue at 18.38 mg/kg administered intragastrically for 1 week; format: functional, Testis
Mus musculus [13] = test: Antimutagenic activity in mouse kidney assessed as protein level per gram of tissue at 18.38 mg/kg administered intragastrically for 1 week; format: functional
Mus musculus [14] = test: Antimutagenic activity in mouse liver assessed as protein level per gram of tissue at 18.38 mg/kg administered intragastrically for 1 week; format: functional
Mus musculus [15] = test: Antimutagenic activity in mouse brain assessed as peroxidase activity per microgram of tissue at 18.38 mg/kg administered intragastrically for 1 week; format: functional
Mus musculus [16] = test: Antimutagenic activity in mouse brain assessed as cholinesterase activity per microgram of tissue at 18.38 mg/kg administered intragastrically for 1 week; format: functional
Mus musculus [17] = test: Antimutagenic activity against cyclophosphamide-induced mutagenicity in Albino mouse brain assessed as DNA level per gram of tissue at 18.38 mg/kg administered intragastrically for 1 week; format: functional
Mus musculus [18] = test: Antimutagenic activity against cyclophosphamide-induced mutagenicity in Albino mouse kidney assessed as DNA level per gram of tissue at 18.38 mg/kg administered intragastrically for 1 week; format: functional
Mus musculus [19] = test: Antimutagenic activity against cyclophosphamide-induced mutagenicity in Albino mouse liver assessed as DNA level per gram of tissue at 18.38 mg/kg administered intragastrically for 1 week; format: functional
Mus musculus [20] = test: Antimutagenic activity against cyclophosphamide-induced mutagenicity in Albino mouse testes assessed as DNA level per gram of tissue at 18.38 mg/kg administered intragastrically for 1 week; format: functional, Testis
Mus musculus [21] = test: Antimutagenic activity against cyclophosphamide-induced mutagenicity in Albino mouse brain assessed as RNA level per gram of tissue at 18.38 mg/kg administered intragastrically for 1 week; format: functional
Mus musculus [22] = test: Antimutagenic activity against cyclophosphamide-induced mutagenicity in Albino mouse kidney assessed as RNA level per gram of tissue at 18.38 mg/kg administered intragastrically for 1 week; format: functional
Mus musculus [23] = test: Antimutagenic activity against cyclophosphamide-induced mutagenicity in Albino mouse liver assessed as RNA level per gram of tissue at 18.38 mg/kg administered intragastrically for 1 week; format: functional
Mus musculus [24] = test: Antimutagenic activity against cyclophosphamide-induced mutagenicity in mouse brain assessed as peroxidase activity per microgram of tissue at 18.38 mg/kg administered intragastrically for 1 week; format: functional
Mus musculus [25] = test: Antimutagenic activity against cyclophosphamide-induced mutagenicity in mouse brain assessed as cholinesterase activity per microgram of tissue at 18.38 mg/kg administered intragastrically for 1 week; format: functional
Mus musculus [26] = test: Antimutagenic activity against cyclophosphamide-induced mutagenicity in Albino mouse testes assessed as RNA level per gram of tissue at 18.38 mg/kg administered intragastrically for 1 week; format: functional, Testis
Mus musculus [27] = test: Antimutagenic activity against cyclophosphamide-induced mutagenicity in mouse brain assessed as protein level per gram of tissue at 18.38 mg/kg administered intragastrically for 1 week; format: functional
Mus musculus [28] = test: Antimutagenic activity against cyclophosphamide-induced mutagenicity in mouse kidney assessed as protein level per gram of tissue at 18.38 mg/kg administered intragastrically for 1 week; format: functional
Mus musculus [29] = test: Inhibition of cyclophosphamide-induced increase in micronuclei/polychromatic erythrocytes count in mouse at 23.04 mg/kg administered intragastrically for 1 week by micronuclei assay; format: functional; design: scale not given: the % may be the effect or the level left
Mus musculus [30] = test: Antimutagenic activity in Albino mouse brain assessed as DNA level per gram of tissue at 23.04 mg/kg administered intragastrically for 1 week; format: functional
Mus musculus [31] = test: Antimutagenic activity in Albino mouse kidney assessed as DNA level per gram of tissue at 23.04 mg/kg administered intragastrically for 1 week; format: functional
Mus musculus [32] = test: Antimutagenic activity in Albino mouse liver assessed as DNA level per gram of tissue at 23.04 mg/kg administered intragastrically for 1 week; format: functional
Mus musculus [33] = test: Antimutagenic activity in Albino mouse testes assessed as DNA level per gram of tissue at 23.04 mg/kg administered intragastrically for 1 week; format: functional, Testis
Mus musculus [34] = test: Antimutagenic activity in Albino mouse brain assessed as RNA level per gram of tissue at 23.04 mg/kg administered intragastrically for 1 week; format: functional
Mus musculus [35] = test: Antimutagenic activity in Albino mouse kidney assessed as RNA level per gram of tissue at 23.04 mg/kg administered intragastrically for 1 week; format: functional
Mus musculus [36] = test: Antimutagenic activity in Albino mouse liver assessed as RNA level per gram of tissue at 23.04 mg/kg administered intragastrically for 1 week; format: functional
Mus musculus [37] = test: Antimutagenic activity in Albino mouse testes assessed as RNA level per gram of tissue at 23.04 mg/kg administered intragastrically for 1 week; format: functional, Testis
Mus musculus [38] = test: Antimutagenic activity in mouse brain assessed as protein level per gram of tissue at 23.04 mg/kg administered intragastrically for 1 week; format: functional
Mus musculus [39] = test: Antimutagenic activity against cyclophosphamide-induced mutagenicity in mouse liver assessed as protein level per gram of tissue at 23.04 mg/kg administered intragastrically for 1 week; format: functional
Mus musculus [40] = test: Antimutagenic activity against cyclophosphamide-induced mutagenicity in mouse testes assessed as protein level per gram of tissue at 23.04 mg/kg administered intragastrically for 1 week; format: functional, Testis
Mus musculus [41] = test: Antimutagenic activity in mouse kidney assessed as protein level per gram of tissue at 23.04 mg/kg administered intragastrically for 1 week; format: functional
Mus musculus [42] = test: Antimutagenic activity in mouse liver assessed as protein level per gram of tissue at 23.04 mg/kg administered intragastrically for 1 week; format: functional
Mus musculus [43] = test: Antimutagenic activity in mouse brain assessed as peroxidase activity per microgram of tissue at 23.04 mg/kg administered intragastrically for 1 week; format: functional
Mus musculus [44] = test: Antimutagenic activity in mouse brain assessed as cholinesterase activity per microgram of tissue at 23.04 mg/kg administered intragastrically for 1 week; format: functional
Mus musculus [45] = test: Antimutagenic activity against cyclophosphamide-induced mutagenicity in Albino mouse brain assessed as DNA level per gram of tissue at 23.04 mg/kg administered intragastrically for 1 week; format: functional
Mus musculus [46] = test: Antimutagenic activity against cyclophosphamide-induced mutagenicity in Albino mouse kidney assessed as DNA level per gram of tissue at 23.04 mg/kg administered intragastrically for 1 week; format: functional
Mus musculus [47] = test: Antimutagenic activity against cyclophosphamide-induced mutagenicity in Albino mouse liver assessed as DNA level per gram of tissue at 23.04 mg/kg administered intragastrically for 1 week; format: functional
Mus musculus [48] = test: Antimutagenic activity against cyclophosphamide-induced mutagenicity in Albino mouse testes assessed as DNA level per gram of tissue at 23.04 mg/kg administered intragastrically for 1 week; format: functional, Testis
Mus musculus [49] = test: Antimutagenic activity against cyclophosphamide-induced mutagenicity in Albino mouse brain assessed as RNA level per gram of tissue at 23.04 mg/kg administered intragastrically for 1 week; format: functional
Mus musculus [50] = test: Antimutagenic activity against cyclophosphamide-induced mutagenicity in Albino mouse kidney assessed as RNA level per gram of tissue at 23.04 mg/kg administered intragastrically for 1 week; format: functional
Mus musculus [51] = test: Antimutagenic activity against cyclophosphamide-induced mutagenicity in mouse brain assessed as peroxidase activity per microgram of tissue at 23.04 mg/kg administered intragastrically for 1 week; format: functional
Mus musculus [52] = test: Antimutagenic activity against cyclophosphamide-induced mutagenicity in mouse brain assessed as cholinesterase activity per microgram of tissue at 23.04 mg/kg administered intragastrically for 1 week; format: functional
Mus musculus [53] = test: Antimutagenic activity against cyclophosphamide-induced mutagenicity in Albino mouse liver assessed as RNA level per gram of tissue at 23.04 mg/kg administered intragastrically for 1 week; format: functional
Mus musculus [54] = test: Antimutagenic activity against cyclophosphamide-induced mutagenicity in Albino mouse testes assessed as RNA level per gram of tissue at 23.04 mg/kg administered intragastrically for 1 week; format: functional, Testis
Mus musculus [55] = test: Antimutagenic activity against cyclophosphamide-induced mutagenicity in mouse brain assessed as protein level per gram of tissue at 23.04 mg/kg administered intragastrically for 1 week; format: functional
Mus musculus [56] = test: Antimutagenic activity against cyclophosphamide-induced mutagenicity in mouse kidney assessed as protein level per gram of tissue at 23.04 mg/kg administered intragastrically for 1 week; format: functional

## COc1ccc2c(c1)c(CCNC(C)=O)c1sc(-c3sc(N)c(C#N)c3N)nn12
Mus musculus [1]
  Activity: 44%
Mus musculus [2]
  Activity: 0.35 mg
Mus musculus [3]
  Activity: 0.34 mg
Mus musculus [4]
  Activity: 0.33 mg
Mus musculus [5]
  Activity: 0.35 mg
Mus musculus [6]
  Activity: 0.19 mg
Mus musculus [7]
  Activity: 0.28 mg
Mus musculus [8]
  Activity: 0.46 mg
Mus musculus [9]
  Activity: 0.27 mg
Mus musculus [10]
  Activity: 2.76 g
Mus musculus [11]
  Activity: 9.26 g
Mus musculus [12]
  Activity: 3.11 g
Mus musculus [13]
  Activity: 7.17 g
Mus musculus [14]
  Activity: 9.81 g
Mus musculus [15]
  Activity: 6.3 U/min
Mus musculus [16]
  Activity: 3.76 U
Mus musculus [17]
  Activity: 0.22 mg
Mus musculus [18]
  Activity: 0.35 mg
Mus musculus [19]
  Activity: 0.29 mg
Mus musculus [20]
  Activity: 0.3 mg
Mus musculus [21]
  Activity: 0.16 mg
Mus musculus [22]
  Activity: 0.24 mg
Mus musculus [23]
  Activity: 0.49 mg
Mus musculus [24]
  Activity: 4.1 U/min
Mus musculus [25]
  Activity: 2.85 U
Mus musculus [26]
  Activity: 0.2 mg
Mus musculus [27]
  Activity: 2.53 g
Mus musculus [28]
  Activity: 4.14 g

## COc1ccc2c(c1)c(CCNC(C)=O)c1sc(-c3c(-c4ccccc4)cnn(-c4ccccc4)c3=N)nn12
Mus musculus [29]
  Activity: 65%
Mus musculus [30]
  Activity: 0.37 mg
Mus musculus [31]
  Activity: 0.38 mg
Mus musculus [32]
  Activity: 0.35 mg
Mus musculus [33]
  Activity: 0.39 mg
Mus musculus [34]
  Activity: 0.21 mg
Mus musculus [35]
  Activity: 0.47 mg
Mus musculus [36]
  Activity: 0.48 mg
Mus musculus [37]
  Activity: 0.36 mg
Mus musculus [38]
  Activity: 3.2 g
Mus musculus [39]
  Activity: 10.03 g
Mus musculus [40]
  Activity: 4.31 g
Mus musculus [41]
  Activity: 8.68 g
Mus musculus [42]
  Activity: 10.23 g
Mus musculus [43]
  Activity: 9.74 U/min
Mus musculus [44]
  Activity: 4.21 U
Mus musculus [45]
  Activity: 0.25 mg
Mus musculus [46]
  Activity: 0.36 mg
Mus musculus [47]
  Activity: 0.32 mg
Mus musculus [48]
  Activity: 0.31 mg
Mus musculus [49]
  Activity: 0.17 mg
Mus musculus [50]
  Activity: 0.4 mg
Mus musculus [51]
  Activity: 5.5 U/min
Mus musculus [52]
  Activity: 3.03 U
Mus musculus [53]
  Activity: 0.51 mg
Mus musculus [54]
  Activity: 0.2 mg
Mus musculus [55]
  Activity: 3.15 g
Mus musculus [56]
  Activity: 4.96 g
